Assay results taken from patent US5378692A, “Method of lowering lipids” (Senju Pharmaceutical Co., Ltd., priority 1992, dated 1995).

Key:
rat hypertriglyceridemia = assay: Effect on rat hypertriglyceridemia (Intralipid-induced), serum triglyceride; type: in vivo; settings: male Wistar rats; for TG (serum triglyceride): 200 mg/2 ml/kg i.p., Intralipid 2 ml/kg i.v. 0.5 hour after dosing, blood 30 min after injection, mean ± S.E., n = 8-9; for triglyceride (TG) lowering effect (in words): 200 mg/kg i.p., versus control
Procedure: Intralipid (Otsuka Pharmaceutical Co., Ltd.) was used for induction of hypertriglyceridemia in rats.
The treatment groups were intraperitoneally dosed with glutathione (hereinafter referred to as GSH), S-(diethyl α, β-dicarboxyethyl)glutathione (hereinafter, DCE-Et-GS), S-(diethyl α, β-dicarboxyethyl)glutathione isopropyl ester (hereinafter, DCE-Et-GS-iPr) and S-(α, β-dicarbamoylethyl)glutathione (hereinafter, DCE-NH2 -GS), each dissolved in physiological saline. The dose was invariously 200 mg/2 ml/kg. The control group received 2 ml/kg of physiological saline i.p. The normal group was also provided.
Intralipid 2 ml/kg was injected into the tail vein 0.5 hour after administration of the test substance. Thirty minutes after the injection, the blood was collected and the serum triglyceride (TG) was determined.

[1] = system: rat streptozotocin diabetes; assay: Effect on rat streptozotocin diabetes, blood lipids; type: in vivo; settings: STZ-diabetic male SD rats, 100 mg/2 ml/kg i.p. once a day, mean, n = 4-7; for Total Cholesterol Week 4: week 4, tail blood; for Total Cholesterol Week 8: week 8, tail blood; for Total Cholesterol Week 10: week 10, abdominal aorta blood
Procedure: Using male 4-week-old SD rats, streptozotocin (STZ), 70 mg/kg, was injected into the tail vein to construct a diabetes model. As test substances, DCE-GS, DCE-Et-GS and DCE-Et-GS-iPr, each dissolved in physiological saline, were respectively administered intraperitoneally in doses of 100 mg/2 ml/kg once a day. The control group received physiological saline, 2 ml/kg, i.p. The normal group was also provided.
At weeks 4 and 8 of treatment, the blood was collected from the tail and the total cholesterol was determined. Furthermore, at week 10, the blood was collected from the abdominal aorta for blood biochemical tests.

[2] = system: rat alcoholic fatty liver; settings: male Wistar rats; for TG (liver triglyceride): 1000 mg/5 ml/kg p.o., 38% ethyl alcohol 10 ml/kg p.o. 1 hour later, liver excised 6 hours after alcohol, mean ± S.E., n = 8-9
Procedure: Male Wistar rats, 7 weeks old, were used in fasted state.
The experiment was performed in a control group, drug treatment groups and a normal group, each consisting of 8 to 9 animals.
The treatment groups were orally dosed with GSH and DCE-Et-GS-iPr, each dissolved in distilled water, at the dose level of 1000 mg/5 ml/kg. The control group received 5 ml/kg of distilled water p.o. The normal group was also provided.
One hour after administration of the test substance, 10 ml/kg of 38% ethyl alcohol was orally administered to the animals for induction of fatty liver. The liver was excised 6 hours after administration of ethyl alcohol and the triglyceride (TG) was determined by the acetylacetone method.

SMILES	TG (serum triglyceride) (rat hypertriglyceridemia) [mg/dL]	triglyceride (TG) lowering effect (in words) (rat hypertriglyceridemia)	Total Cholesterol Week 4 [1] [mg/dL]	Total Cholesterol Week 8 [1] [mg/dL]	Total Cholesterol Week 10 [1] [mg/dL]	TG (blood triglycerides) ([1]; week 10) [mg/dL]	VLDL ([1]; week 10) [mg/dL]	β-lipoproteins ([1]; week 10) [mg/dL]	TG (liver triglyceride) [2] [mg/g liver]	triglyceride (TG) lowering effect (in words) ([2]; 1000 mg/kg p.o., versus control)
CCOC(=O)CC(SC[C@H](NC(=O)CC[C@H](N)C(=O)O)C(=O)NCC(=O)OC(C)C)C(=O)OCC (stereo partly drawn) [DCE-Et-GS-iPr, S-(diethyl α, β-dicarboxyethyl)glutathione isopropyl ester]	66.1 ± 11	Significant triglyceride (TG) lowering effects	113.9	110.5	120	404	106	818	10.7 ± 0.3	significant triglyceride (TG) lowering effect
N[C@@H](CCC(=O)N[C@@H](CSC(CC(=O)O)C(=O)O)C(=O)NCC(=O)O)C(=O)O (stereo partly drawn) [DCE-GS, S-(α, β-dicarboxyethyl)glutathione]	–	–	109.8	118.2	95	406	–	759	–	–
NC(=O)CC(SC[C@H](NC(=O)CC[C@H](N)C(=O)O)C(=O)NCC(=O)O)C(N)=O (stereo partly drawn) [DCE-NH2 -GS, S-(α, β-dicarbamoylethyl)glutathione]	72.4 ± 6	Significant triglyceride (TG) lowering effects	–	–	–	–	–	–	–	–
N[C@@H](CCC(=O)N[C@@H](CS)C(=O)NCC(=O)O)C(=O)O [GSH, glutathione, reference compound]	150.4 ± 12	–	–	–	–	–	–	–	13.0 ± 0.4	–
